Results taken from patent US20230028441A1, “NOVEL HETEROARYL-TRIAZOLE COMPOUNDS AS PESTICIDES” (Bayer Aktiengesellschaft, priority 2019, published 2023).

Legend:
Type in all cases: in vivo
[1] = system: adult engorged female ticks (Rhipicephalus microplus); assay: Rhipicephalus (Boophilus) microplus injection test; settings: 168 h, egg deposition after 7 days, read-out: efficacy (infertile eggs); for pest or weed control at 0.004 mg: 4 μg/animal; for pest or weed control at 0.02 mg: 20 μg/animal
Description: (§1) Solvent: dimethyl sulfoxide
To produce a suitable preparation of active compound, 10 mg of active compound are dissolved in 0.5 mL solvent, and the concentrate is diluted with solvent to the desired concentration.
Five adult engorged female ticks (Rhipicephalus microplus) are injected with 1 μL compound solution into the abdomen. The ticks are transferred into replica plates and incubated in a climate chamber.
After 7 days egg deposition of fertile eggs is monitored. Eggs where fertility is not visible are stored in a climate chamber till hatching after about 42 days. An efficacy of 100% means all eggs are infertile; 0% means all eggs are fertile.

[2] = system: adult unfed cat fleas (Ctenocephalides felis); assay: Ctenocephalides felis oral test; settings: 48 h, 100 ppm in cattle blood, after 2 days
Description: as §1
To produce a suitable preparation of active compound, 10 mg of active compound are dissolved in 0.5 mL solvent, and the concentrate is diluted with cattle blood to the desired concentration.
Approximately 20 adult unfed cat fleas (Ctenocephalides felis) are placed in flea chambers. The blood chamber, sealed with parafilm on the bottom, are filled with cattle blood supplied with compound solution and placed on the gauze covered top of the flea chamber, so that the fleas are able to suck the blood. The blood chamber is heated to 37° C. whereas the flea chamber is kept at room temperature.
After 2 days mortality in % is determined. 100% means all the fleas have been killed; 0% means none of the fleas have been killed.

[3] = system: adult brown dog ticks (Rhipicephalus sanguineus); assay: Rhipicephalus sanguineus in-vitro contact test with adult brown dog ticks; settings: after 48 hours, read-out: efficacy (ticks dead or moribund); for pest or weed control at 5 µg/cm2, 500 g/ha: 5 μg/cm^2 (=500 g/ha)
Description: (§2) 9 mg compound is solved in 1 mL acetone and diluted with acetone to the desired concentration. 250 μL of the test solution is filled in 25 mL glass test tubes and homogeneously distributed on the inner walls by rotation and tilting on a shaking device (2 h at 30 rpm). With a compound concentration of 900 ppm, an inner surface of 44.7 cm^2 and a homogeneous distribution, a dose of 5 μg/cm^2 is achieved.
After the solvent has evaporated, each test tube is filled with 5-10 adult brown dog ticks (Rhipicephalus sanguineus), closed with a perforated lid and incubated in a lying position at room temperature and relative humidity. After 48 hours efficacy is determined. The ticks are patted on the ground of the tubes and are incubated on a heating plate at 45-50° C. for at most 5 minutes. Immotile or uncoordinated moving ticks, which are not able to escape the heat by climbing upwards, are marked as dead or moribund.
An efficacy of 100% means all ticks are dead or moribund; 0% means no ticks are dead or moribund.

[4] = system: green peach aphid (Myzus persicae); assay: Myzus persicae oral test; settings: 120 h
Description: Solvent: 100 parts by weight acetone
To produce a suitable preparation of active compound, 1 part by weight of active compound is mixed with the stated amount of solvent, and the concentrate is diluted with water to the desired concentration.
50 μL compound solution is filled in microtiter plates and 150 μL IPL41 insect medium (33%+15% sugar) is added to obtain a total volume of 200 μL per well. Afterwards the plates are sealed with parafilm through which a mixed population of the green peach aphid (Myzus persicae) can suck on the compound preparation.
After 5 days mortality in % is determined. 100% means all aphids have been killed and 0% means none of the aphids have been killed.

[5] = system: larvae of the banded cucumber beetle (Diabrotica balteata); assay: Diabrotica balteata spray test; settings: 168 h, 100 g/ha (=32 μg/well), after 7 days, wheat seeds, read-out: efficacy (seedlings grown up)
Description: (§3) Solvent: 78.0 parts by weight of acetone • • 1.5 parts by weight of dimethylformamide
(§4) Emulsifier: alkylarylpolyglycol ether
(§5) To produce a suitable preparation of active compound, 1 part by weight of active compound is mixed with the stated amount of solvent, and the concentrate is diluted with water, containing an emulsifier concentration of 1000 ppm, to the desired concentration. Further test concentrations are prepared by dilution with emulsifier containing water.
Soaked wheat seeds (Triticum aestivum) are placed in a multiple well plate filled with agar and some water and are incubated for 1 day to germinate (5 seeds per well). The germinated wheat seeds are sprayed with a test solution containing the desired concentration of the active ingredient. Afterwards each unit is infected with 10-20 larvae of the banded cucumber beetle (Diabrotica balteata).
After 7 days efficacy in % is determined. 100% means all the seedlings have grown up like in the untreated, uninfected control; 0% means none of the seedlings have grown.

[6] = system: larvae of the southern green stink bug (Nezara viridula); assay: Nezara viridula spray test; settings: in Hordeum vulgare, 96 h
Description: as §3, §4, §5
Barley plants (Hordeum vulgare) infested with larvae of the southern green stink bug (Nezara viridula) are sprayed with a test solution containing the desired concentration of the active ingredient.
After 4 days mortality in % is determined. 100% means all the stink bugs have been killed; 0% means none of the stink bugs have been killed.

[7] = system: fall armyworm larvae (Spodoptera frugiperda); assay: Spodoptera frugiperda spray test (maize leaf sections); settings: 168 h
Description: Solvent: 78.0 parts by weight acetone • 1.5 parts by weight dimethylformamide
as §4
as §5, with “solvents” for “solvent,”, “and” for “and the concentrate”
Maize (Zea mays) leaf sections are sprayed with a preparation of the active ingredient of the desired concentration. Once dry, the leaf sections are infested with fall armyworm larvae (Spodoptera frugiperda).
After 7 days mortality in % is determined. 100% means all caterpillars have been killed and 0% means none of the caterpillars have been killed.

[8] = system: cattle tick larvae (Rhipicephalus microplus), strain Parkhurst, resistant against synthetic pyrethroids; assay: Rhipicephalus (Boophilus) microplus in-vitro contact test, larval cattle tick; settings: 5 μg/cm^2 (=500 g/ha), after 48 hours, read-out: efficacy (larvae dead or moribund)
Description: as §2
After the solvent has evaporated, each test tube is filled with 20-50 cattle tick larvae (Rhipicephalus microplus), closed with a perforated lid and incubated in a horizontal position at 85% relative humidity and 27° C. in an incubator. After 48 hours efficacy is determined. The larvae are patted on the ground of the tubes and negative geotactic behaviour is recorded.
An efficacy of 100% means all larvae are dead or moribund; 0% means no larvae are dead or moribund.

| SMILES | pest or weed control at 0.004 mg [1] [%] | pest or weed control at 0.02 mg [1] [%] | mortality at 100 ppm [2] [%] | pest or weed control at 5 µg/cm2, 500 g/ha [3] [%] | mortality at 4 ppm [4] [%] | pest or weed control at 32 µg/disc, 100 g/ha [5] [%] | mortality at 500 g/ha [6] [%] | mortality at 100 g/ha [7] [%] | pest or weed control at 1 µg/cm2, 100 g/ha ([3]; 1 μg/cm^2 (=100 g/ha)) [%] | pest or weed control at 5 µg/cm2 [8] [%] | mortality at 100 g/ha [6] [%] | mortality at 500 g/ha [7] [%] |
| --- | --- | --- | --- | --- | --- | --- | --- | --- | --- | --- | --- | --- |
| CC(NC(=O)c1cc(Cl)cc(S(C)(=O)=O)c1)c1nc(-c2cnccn2)nn1-c1ncccn1 (centres unmarked) [I-045] | 100 | 100 | 100 | 80 | 90 | – | – | – | – | – | – | – |
| CC(NC(=O)c1cc(Cl)cc(C(F)(F)F)c1)c1nc(C#N)nn1-c1ncccn1 (single isomer, unassigned) [I-080, 3-chloro-N-[1-(5-cyano-2-pyrimidin-2-yl-1,2,4-triazol-3-yl)ethyl]-5-(trifluoromethyl)benzamide] | 100 | – | 100 | – | 90 | 100 | – | – | – | – | – | – |
| CC(NC(=O)c1cc(Cl)cc(C(C)(C)C#N)c1)c1nc(N2CCOCC2)nn1-c1ccc(C#N)cn1 (centres unmarked) [I-159] | – | – | – | – | – | 100 | 90 | 100 | 100 | 100 | – | – |
| CC(NC(=O)c1cc(Br)cc(Br)c1)c1nc(N)nn1-c1ncccn1 (centres unmarked) [I-094] | – | – | – | – | 100 | – | – | 100 | – | – | – | – |
| CC(NC(=O)c1cc(Cl)cc(S(C)(=O)=O)c1)c1nc(N)nn1-c1ccc(Cl)cn1 (centres unmarked) [I-005] | 100 | 100 | 100 | – | 90 | – | – | – | – | – | – | – |
| CC(NC(=O)c1cc(Cl)cc(C(F)(F)F)c1)c1nc(NC(=O)C2CC2)nn1-c1ncccn1 (centres unmarked) [I-023] | – | – | – | – | 100 | 100 | – | 100 | – | – | 90 | – |
| CNc1nc([C@H](C)NC(=O)c2cc(C(F)(F)F)cc(C(F)(F)F)c2)n(-c2ncc(C(=O)N3CCOCC3)s2)n1 [I-126, N-[(1S)-1-[5-(methylamino)-2-[5-(morpholine-4-carbonyl)thiazol-2-yl]-1,2,4-triazol-3-yl]ethyl]-3,5-bis(trifluoromethyl)benzamide] | – | – | – | 80 | – | 100 | 100 | 100 | – | – | – | – |
| CC(=O)Nc1nc(C(C)NC(=O)c2cc(Cl)cc(S(C)(=O)=O)c2)n(-c2ccc(Cl)cn2)n1 (centres unmarked) [I-017] | 100 | 100 | 100 | – | 100 | – | 100 | – | – | – | 90 | 100 |
| CNC(=O)c1nc(C(C)NC(=O)c2cc(Cl)cc(C(F)(F)F)c2)n(-c2ccc(C#N)cn2)n1 (centres unmarked) [I-079] | 100 | 100 | 100 | – | 100 | – | – | 100 | – | 100 | – | – |
| CC(NC(=O)c1cc(Cl)cc(C(F)(F)F)c1)c1nc(NC(=O)[C@@H]2C[C@@H]2F)nn1-c1ncccn1 (some centres unmarked) [I-024] | – | – | – | – | 100 | 100 | – | 100 | – | – | – | – |
